The text below walks through data of patent publication US9056876B2, “Substituted 1H-pyrazolo[3′,4′,4,5]thieno[2,3-b]pyridin-3-amine analogs as positive allosteric modulators of the muscarinic acetylcholine receptor M4” (VANDERBILT UNIVERSITY, priority 2011, dated 2015).

The pEC50 is the EC50 on a negative log10 scale, so that one unit is a factor of ten. In general, EC50 refers to the concentration that produces a half-maximal response.

The conditions of data set [1]: in vivo; cited from earlier work.
Data set [2] concerns animal models. To be noted: cited from earlier work.
For data set [3], the system named is Alzheimer's disease patients. To be noted: cited from earlier work.
The target in data set [4] is T1, mAChR M4 (UniProt P08173).
T1 construct: hM1 and hM4 cDNAs were purchased from Missouri S&T cDNA Resource
T1 sequence (P08173 1-479): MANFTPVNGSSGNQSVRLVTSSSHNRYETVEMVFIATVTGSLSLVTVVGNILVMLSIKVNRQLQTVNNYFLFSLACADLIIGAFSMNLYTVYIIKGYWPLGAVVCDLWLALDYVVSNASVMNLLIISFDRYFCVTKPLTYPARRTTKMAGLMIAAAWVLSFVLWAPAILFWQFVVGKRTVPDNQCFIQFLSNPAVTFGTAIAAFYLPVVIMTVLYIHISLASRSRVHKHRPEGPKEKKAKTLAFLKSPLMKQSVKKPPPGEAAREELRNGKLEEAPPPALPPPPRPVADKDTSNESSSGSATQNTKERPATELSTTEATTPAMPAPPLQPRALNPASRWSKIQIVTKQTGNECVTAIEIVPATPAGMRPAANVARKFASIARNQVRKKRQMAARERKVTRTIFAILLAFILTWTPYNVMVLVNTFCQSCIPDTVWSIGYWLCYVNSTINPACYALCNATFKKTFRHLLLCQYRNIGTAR
In words: mAChR M4 cell-based functional assay (calcium mobilization, Fluo-4, FDSS). To be noted: for Emax (%)*: % ACh maximum at 30 μM; for pEC50: positive allosteric modulator activity, EC20 acetylcholine response; for pEC50 / EC50: CHO-K1 cells; for EC50: positive allosteric modulator activity: concentration-dependent increase in the EC20 acetylcholine response, >10 μM estimated for low potency (no plateau). A digest of the protocol:
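CHO-K1 cells stably expressing hM4 or rM4 with chimeric Gqi5, loaded with Fluo-4 AM for 50 min at 37° C. Calcium read on FDSS 6000 over 300 s: compound added at 4 s, acetylcholine EC20 at 144 s and EC80 at 230 s. Agonist, PAM (EC20 increase) and antagonist (EC80 decrease) values fitted by four-parameter logistic.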

As to `Nc1c2c(nc3ccccc13)CCCC2` [tacrine], in data set [1], the “elevated liver transaminases, share of patients” value is on record as “about 30%”.
`CCCCCCOc1nsnc1C1=CCCN(C)C1` [xanomeline]: the catalepsy result in data set [2] (in vivo) was “without causing catalepsy”. Also, the “activity in animal models” value in data set [2] (profiles similar to known antipsychotic drugs) is reported as “active in animal models”. In data set [3], the “psychotic behavioral symptoms (delusions, suspiciousness, vocal outbursts, hallucinations)” value is given as “reduce psychotic behavioral symptoms”.
Take `COc1ccc(CNc2nn(C)c3c2sc2nc(C)cc(C)c23)c(OC)c1` [Compound 61, N-(2,4-dimethoxybenzyl)-1,6,8-trimethyl-1H-pyrazolo[3′,4′:4,5]thieno[2,3-b]pyridin-3-amine]: in data set [4], the “Emax (%)*” value was found to be 33%, the pEC50 is reported as 6.35 and the EC50 is 450 nM.
On to `Cc1cc(C)c2c(n1)sc1c(NC3CCSCC3)nn(CCO)c12` [Compound 114, 2-(6,8-dimethyl-3-((tetrahydro-2H-thiopyran-4-yl)amino)-1H-pyrazolo[3′,4′:4,5]thieno[2,3-b]pyridin-1-yl)ethanol], for which, in data set [4], the “Emax (%)*” value worked out at 70%, the pEC50 was 6.43 and the EC50 is 370 nM.
The like results for `Cc1cc(C)c2c(n1)sc1c(NC3CCOC3)nn(CCO)c12` (stereo not shown) [Compound 108, 2-(6,8-dimethyl-3-((tetrahydrofuran-3-yl)amino)-1H-pyrazolo[3′,4′:4,5]thieno[2,3-b]pyridin-1-yl)ethanol] were, in that order, 69%, 6.09 and 820 nM.
The like results for `Cc1cc(C)c2c(n1)sc1c(NCC3CC3)nn(C(=O)OC(C)(C)C)c12` [Compound 8, tert-butyl 3-((cyclopropylmethyl)amino)-6,8-dimethyl-1H-pyrazolo[3′,4′:4,5]thieno[2,3-b]pyridine-1-carboxylate] were, in that order, 61%, 5.62 and 2410 nM.
In the case of `Cc1cc(C)c2c(n1)sc1c(NCc3ccco3)nn(CCO)c12` [Compound 95, 2-(3-((furan-2-ylmethyl)amino)-6,8-dimethyl-1H-pyrazolo[3′,4′:4,5]thieno[2,3-b]pyridin-1-yl)ethanol], in data set [4], the “Emax (%)*” value was 67%, the pEC50 is recorded as 6.92 and the half-maximal effective concentration (EC50) is 120 nM.
The like results for `Cc1nc2sc3c(NCc4cccs4)n[nH]c3c2c(C)c1Cl` [Compound 21, 7-chloro-6,8-dimethyl-N-(thiophen-2-ylmethyl)-1H-pyrazolo[3′,4′:4,5]thieno[2,3-b]pyridin-3-amine] were, in that order, 39%, under 5.00 and over 10000 nM.
Taken in the same sequence, the figures for `COCCn1nc(NCc2ccc(OC)cc2)c2sc3nc(C)cc(C)c3c21` [Compound 118, N-(4-methoxybenzyl)-1-(2-methoxyethyl)-6,8-dimethyl-1H-pyrazolo[3′,4′:4,5]thieno[2,3-b]pyridin-3-amine] were 60%, under 5.00 and over 10000 nM.
As to `Cc1cc(C)c2c(n1)sc1c(NCc3cc4ccccc4n3C)nn(C)c12` [Compound 89, 1,6,8-trimethyl-N-((1-methyl-1H-indo1-2-yl)methyl)-1H-pyrazolo[3′,4′:4,5]thieno[2,3-b]pyridin-3-amine], in data set [4], the “Emax (%)*” value came out at 51%, the pEC50 was under 5.00 and the EC50 was over 10000 nM.
For the molecule `Cc1ccc2c(n1)sc1c(NCc3ccc(Cl)cc3)nn(C)c12` [Compound 56, N-(4-chlorobenzyl)-1,6-dimethyl-1H-pyrazolo[3′,4′:4,5]thieno[2,3-b]pyridin-3-amine], in data set [4], the “Emax (%)*” value was found to be 56%, the pEC50 is under 5.00 and the EC50 was over 10000 nM.
Taken in the same sequence, the figures for `Cc1nc2sc3c(NCC4CC4)nn(C)c3c2c(C)c1Cl` [Compound 19, 7-chloro-N-(cyclopropylmethyl)-1,6,8-trimethyl-1H-pyrazolo[3′,4′:4,5]thieno[2,3-b]pyridin-3-amine] were 65%, 6.59 and 260 nM.
